The values that follow come from patent US9580416B2, “Inhibitors of Bruton's tyrosine kinase” (PHARMACYCLICS LLC, priority 2014, dated 2017).

Type in all cases: biochemical
One assay addresses Lck (Homo sapiens, UniProt P06239). The experiment in a line: Lck kinase activity, TR-FRET assay. The following applies: read-out: LCK (IC50). Here is the method:
(§1) Btk kinase activity is determined using a time-resolved fluorescence resonance energy transfer (TR-FRET) methodology. Measurements are performed in a reaction volume of 50 μL using 96-well assay plates. Kinase enzyme, inhibitor, ATP (at the Km for the kinase), and 1 […] (Biotin-AVLESEEELYSSARQ-NH2) are incubated in a reaction buffer composed of 20 mM Tris, 50 mM NaCl, MgCl2 (5-25 mM depending on the kinase), MnCl2 (0-10 mM), 1 mM DTT, 0.1 mM EDTA, 0.01% bovine serum albumin, 0.005% Tween-20, and 10% DMSO at pH 7.4 for one hour. The reaction is quenched by the addition of 1.2 equivalents of EDTA (relative to divalent cation) in 25 μL of 1× Lance buffer (Perkin-Elmer). Streptavidin-APC (Perkin-Elmer) and Eu-labeled p-Tyr100 antibody (Perkin-Elmer) in 1× Lance buffer are added in a 25 μL volume to give final concentrations of 100 nM and 2.5 nM, respectively, and the mixture is allowed to incubate for one hour. The TR-FRET signal is measured on a multimode plate reader with an excitation wavelength (λEx) of 330 nm and detection wavelengths (λEm) of 615 and 665 nm. Activity is determined by the ratio of the fluorescence at 665 nm to that at 615 nm. For each compound, enzyme activity is measured at various concentrations of compound. Negative control reactions are performed in the absence of inhibitor in replicates of six, and two no-enzyme controls are used to determine baseline fluorescence levels. Inhibition constants, Ki(app), ware obtained using the program BatchKi (Kuzmic et al. (2000), Anal. Biochem. 286:45-50). IC50s are obtained according to the equation: IC50={Ki(app)/(1+[ATP]/Km^ATP)}+[E]total/2;
(§2) For all kinases, [ATP]=Km^ATP, [Btk]total=0.5 nM and [Lck]total=6 nM.

The next assay has as its target Btk (Homo sapiens, UniProt Q06187). The experiment in a line: Btk kinase activity, TR-FRET assay. The settings on record: read-out: Btk (IC50). The procedure:
as §1, §2
(In general: Time-resolved FRET reads energy transfer from a long-lived donor to a nearby acceptor.)

Another assay deals with EGFR (Homo sapiens, UniProt P00533). The experiment in a line: Inhibition of a panel of kinases, in vitro HotSpot kinase assay: EGFR. The procedure:
The degree of inhibition of a panel of kinases is determined using the in vitro HotSpot kinase assay (purified enzymes, ^33P-ATP, an appropriate substrate and 1 uM ATP).

Where only a bound is given, the exact number is not on record here.

For orientation: IC50 means the concentration at which inhibition is half-maximal.

Chain of Lck (P06239 whole entry, species assumed): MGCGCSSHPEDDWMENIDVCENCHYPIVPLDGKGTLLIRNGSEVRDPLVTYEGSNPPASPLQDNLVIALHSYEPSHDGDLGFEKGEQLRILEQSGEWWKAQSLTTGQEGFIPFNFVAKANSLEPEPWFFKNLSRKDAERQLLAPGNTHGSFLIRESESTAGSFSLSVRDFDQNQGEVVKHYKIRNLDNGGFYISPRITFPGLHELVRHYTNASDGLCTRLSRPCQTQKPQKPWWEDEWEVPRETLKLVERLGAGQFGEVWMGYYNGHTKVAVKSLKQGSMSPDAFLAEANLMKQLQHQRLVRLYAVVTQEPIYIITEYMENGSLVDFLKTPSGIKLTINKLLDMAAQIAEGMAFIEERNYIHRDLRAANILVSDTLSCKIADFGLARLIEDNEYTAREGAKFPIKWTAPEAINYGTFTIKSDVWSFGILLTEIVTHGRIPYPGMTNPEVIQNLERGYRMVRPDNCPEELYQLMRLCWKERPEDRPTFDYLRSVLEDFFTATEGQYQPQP
Chain of EGFR (P00533 25-1210): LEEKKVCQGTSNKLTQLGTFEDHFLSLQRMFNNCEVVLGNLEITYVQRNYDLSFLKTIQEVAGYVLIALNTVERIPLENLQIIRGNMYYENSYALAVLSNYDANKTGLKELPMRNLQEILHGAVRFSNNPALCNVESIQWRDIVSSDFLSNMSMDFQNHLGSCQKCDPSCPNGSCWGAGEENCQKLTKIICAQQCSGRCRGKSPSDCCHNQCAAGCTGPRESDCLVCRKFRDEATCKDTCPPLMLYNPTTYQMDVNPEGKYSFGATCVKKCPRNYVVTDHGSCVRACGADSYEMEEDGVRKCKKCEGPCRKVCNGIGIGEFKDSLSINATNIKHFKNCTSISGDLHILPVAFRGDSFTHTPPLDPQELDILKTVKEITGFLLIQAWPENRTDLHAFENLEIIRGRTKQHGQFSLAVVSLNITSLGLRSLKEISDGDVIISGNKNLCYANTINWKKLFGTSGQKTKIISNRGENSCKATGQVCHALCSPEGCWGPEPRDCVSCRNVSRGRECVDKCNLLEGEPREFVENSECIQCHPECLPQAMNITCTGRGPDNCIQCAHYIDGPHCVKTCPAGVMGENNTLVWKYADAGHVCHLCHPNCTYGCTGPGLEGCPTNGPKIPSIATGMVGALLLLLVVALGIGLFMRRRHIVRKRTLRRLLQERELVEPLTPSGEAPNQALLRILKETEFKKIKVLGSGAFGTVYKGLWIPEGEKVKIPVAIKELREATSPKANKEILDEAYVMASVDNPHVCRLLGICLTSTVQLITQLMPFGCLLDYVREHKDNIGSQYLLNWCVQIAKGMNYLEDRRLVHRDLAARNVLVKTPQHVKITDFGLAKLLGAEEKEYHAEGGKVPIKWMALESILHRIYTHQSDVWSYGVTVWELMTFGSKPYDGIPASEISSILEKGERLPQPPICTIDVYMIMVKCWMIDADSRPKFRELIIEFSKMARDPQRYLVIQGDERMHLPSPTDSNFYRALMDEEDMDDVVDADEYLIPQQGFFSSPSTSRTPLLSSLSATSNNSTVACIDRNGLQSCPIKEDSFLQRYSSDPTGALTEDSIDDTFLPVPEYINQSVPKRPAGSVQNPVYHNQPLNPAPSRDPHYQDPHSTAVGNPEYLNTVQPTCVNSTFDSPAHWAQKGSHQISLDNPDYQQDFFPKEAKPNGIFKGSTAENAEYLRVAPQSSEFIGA
Chain of Btk (Q06187 whole entry): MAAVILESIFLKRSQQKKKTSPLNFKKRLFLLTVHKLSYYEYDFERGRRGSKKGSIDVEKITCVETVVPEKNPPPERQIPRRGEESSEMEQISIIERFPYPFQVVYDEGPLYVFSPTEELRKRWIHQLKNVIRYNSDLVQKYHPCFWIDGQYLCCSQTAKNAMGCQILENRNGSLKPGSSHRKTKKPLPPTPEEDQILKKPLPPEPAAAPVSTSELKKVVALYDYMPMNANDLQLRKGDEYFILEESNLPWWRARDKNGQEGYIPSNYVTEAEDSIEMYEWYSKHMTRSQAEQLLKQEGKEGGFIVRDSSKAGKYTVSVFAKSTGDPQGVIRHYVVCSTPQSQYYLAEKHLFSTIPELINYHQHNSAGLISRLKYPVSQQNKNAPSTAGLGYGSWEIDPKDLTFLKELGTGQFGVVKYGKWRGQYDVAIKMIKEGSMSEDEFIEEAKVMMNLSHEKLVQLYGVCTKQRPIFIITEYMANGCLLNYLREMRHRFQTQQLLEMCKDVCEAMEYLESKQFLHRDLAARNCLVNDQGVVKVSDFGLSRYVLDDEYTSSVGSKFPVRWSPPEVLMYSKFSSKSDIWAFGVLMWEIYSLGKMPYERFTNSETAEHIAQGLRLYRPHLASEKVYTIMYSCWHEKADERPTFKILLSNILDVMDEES

Regarding `CN(C)C/C=C/C(=O)N1CC[C@@H](Nc2n[nH]c3nccc(Oc4ccc(-c5ncco5)c(Cl)c4)c23)C1` [compound 16, (2E)-1-[(3R)-3-({4-[3-chloro-4-(1,3-oxazol-2-yl)phenoxy]-1H-pyrazolo[3,4-b]pyridin-3-yl}amino)pyrrolidin-1-yl]-4-(dimethylamino)but-2-en-1-one], the IC50 is 1000 to 10000 nM at Lck, 100 to 1000 nM at Btk and 1000 to 10000 nM at EGFR.

Turning to `CN(C)C/C=C/C(=O)N1CC[C@@H](Oc2n[nH]c3nccc(Nc4cccc(Oc5ccccc5)c4)c23)C1` [compound 17, (2E)-4-(dimethylamino)-1-[(3R)-3-({4-[(3-phenoxyphenyl)amino]-1H-pyrazolo[3,4-b]pyridin-3-yl}oxy)pyrrolidin-1-yl]but-2-en-1-one], the IC50 on Lck is 100 to 1000 nM; on Btk, less than 100 nM; on EGFR, less than 100 nM.

Take `N#C/C(=C\C1CC1)C(=O)N1CC[C@@H](Nc2n[nH]c3nccc(Oc4ccc(Oc5ccccc5)cc4)c23)C1` [compound 18, (2E)-3-cyclopropyl-2-[(E)-(3R)-{[4-(4-phenoxyphenoxy)-1H-pyrazolo[3,4-b]pyridin-3-yl]amino}pyrrolidine-1-carbonyl]prop-2-enenitrile]: the half-inhibitory concentration (IC50) on Lck was 100 to 1000 nM; on Btk, less than 100 nM; at EGFR it was less than 100 nM.

Consider `N#C/C(=C\c1ccccc1)C(=O)N1CC[C@@H](Nc2n[nH]c3nccc(Oc4ccc(Oc5ccccc5)cc4)c23)C1` [compound 19, (2E)-2-[(E)-(3R)-3-{[4-(4-phenoxyphenoxy)-1H-pyrazolo[3,4-b]pyridin-3-yl]amino}pyrrolidine-1-carbonyl]-3-phenylprop-2-enenitrile], for which the IC50 on Lck was 100 to 1000 nM; at Btk, less than 100 nM; against EGFR it was 100 to 1000 nM.

On to `CN(C)C/C=C/C(=O)N1CC[C@@H](Nc2n[nH]c3nccc(Oc4cccc(Nc5ccncn5)c4)c23)C1` [compound 20, (2E)-4-(dimethylamino)-1-[(3R)-3-[(4-{3-[(pyrimidin-4-yl)amino]phenoxy}-1H-pyrazolo[3,4-b]pyridin-3-yl)amino]pyrrolidin-1-yl]but-2-en-1-one], for which the IC50 on Lck was greater than 10000 nM; at Btk it was greater than 10000 nM; against EGFR, 1000 to 10000 nM.

In the case of `CN(C/C=C/C(=O)N1CC[C@@H](Oc2n[nH]c3nccc(Oc4ccc(Oc5ccccc5)cc4)c23)C1)C1CC1` [compound 22, (2E)-4-[cyclopropyl(methyl)amino]-1-[(3R)-3-{[4-(4-phenoxyphenoxy)-1H-pyrazolo[3,4-b]pyridin-3-yl]oxy}pyrrolidin-1-yl]but-2-en-1-one], the half-maximal inhibitory concentration (IC50) on Lck, on Btk and against EGFR was less than 100 nM each time.

`CN(C/C=C/C(=O)N1CC[C@@H](Nc2n[nH]c3nccc(Nc4ccc(Oc5ccccc5)cc4)c23)C1)C1CC1` [compound 23, (2E)-4-[cyclopropyl(methyl)amino]-1-[(3R)-3-({4-[(4-phenoxyphenyl)amino]-1H-pyrazolo[3,4-b]pyridin-3-yl}amino)pyrrolidin-1-yl]but-2-en-1-one]: the IC50 on Lck is less than 100 nM; on Btk it was less than 100 nM; on EGFR, 100 to 1000 nM.

Turning to `CN(C)C/C=C/C(=O)N1CC[C@@H](Nc2n[nH]c3nccc(O[C@H]4CCN(c5ccccc5)C4)c23)C1` [compound 24, (2E)-4-(dimethylamino)-1-[(3R)-3-[(4-{[(3S)-1-phenylpyrrolidin-3-yl]oxy}-1H-pyrazolo[3,4-b]pyridin-3-yl)amino]pyrrolidin-1-yl]but-2-en-1-one], the IC50 on Lck was 1000 to 10000 nM; at Btk it was 100 to 1000 nM; at EGFR, greater than 10000 nM.

Consider `CN(C)C/C=C/C(=O)N1CC[C@@H](Nc2n[nH]c3nccc(Oc4ccc(Oc5ccccc5)cc4S(N)(=O)=O)c23)C1` [compound 25, 2-[(3-{[(3R)-1-[(2E)-4-(dimethylamino)but-2-enoyl]pyrrolidin-3-yl]amino}-1H-pyrazolo[3,4-b]pyridin-4-yl)oxy]-5-phenoxybenzene-1-sulfonamide], for which the IC50 on Lck, at Btk and against EGFR was 100 to 1000 nM each time.

On to `N#C/C(=C\c1ccccn1)C(=O)N1CC[C@@H](Nc2n[nH]c3nccc(Oc4ccc(Oc5ccccc5)cc4)c23)C1` [compound 26, (2E)-2-[(E)-(3R)-3-{[4-(4-phenoxyphenoxy)-1H-pyrazolo[3,4-b]pyridin-3-yl]amino}pyrrolidine-1-carbonyl]-3-(pyridin-2-yl)prop-2-enenitrile], for which the concentration for half-maximal inhibition (IC50) at Lck is 100 to 1000 nM; at Btk, less than 100 nM; against EGFR it was 100 to 1000 nM.

For the compound `N#C/C(=C\C1CCC1)C(=O)N1CC[C@@H](Nc2n[nH]c3nccc(Oc4ccc(Oc5ccccc5)cc4)c23)C1` [compound 27, (2E)-3-cyclobutyl-2-[(E)-(3R)-3-{[4-(4-phenoxyphenoxy)-1H-pyrazolo[3,4-b]pyridin-3-yl]amino}pyrrolidine-1-carbonyl]prop-2-enenitrile], the IC50 is 100 to 1000 nM at Lck, less than 100 nM at Btk and 100 to 1000 nM against EGFR.

Turning to `N#C/C(=C\c1ncc[nH]1)C(=O)N1CC[C@@H](Nc2n[nH]c3nccc(Oc4ccc(Oc5ccccc5)cc4)c23)C1` [compound 28, (2E)-3-(1H-imidazol-2-yl)-2-[(E)-(3R)-3-{[4-(4-phenoxyphenoxy)-1H-pyrazolo[3,4-b]pyridin-3-yl]amino}pyrrolidine-1-carbonyl]prop-2-enentrile], the IC50 was 100 to 1000 nM on Lck, less than 100 nM at Btk and less than 100 nM on EGFR.

Take `CNC(=O)/C(C#N)=C\c1cccc(Nc2n[nH]c3nccc(Oc4ccc(Oc5ccccc5)cc4)c23)c1` [compound 29, (2Z)-2-cyano-N-methyl-3-(3-{[4-(4-phenoxyphenoxy)-1H-pyrazolo[3,4-b]pyridin-3-yl]amino}phenyl)prop-2-enamide]: the IC50 was 100 to 1000 nM on Lck, less than 100 nM on Btk and less than 100 nM against EGFR.

Regarding `N#Cc1cc(Nc2n[nH]c3nccc(Oc4ccc(Oc5ccccc5)cc4)c23)ccn1` [compound 30, 4-{[4-(4-phenoxyphenoxy)-1H-pyrazolo[3,4-b]pyridin-3-yl]amino}pyridine-2-carbonitrile], the IC50 at Lck fell in the range of 100 to 1000 nM; on Btk it was 1000 to 10000 nM; against EGFR, 100 to 1000 nM.

With `CNC(=O)/C(F)=C/c1cccc(Nc2n[nH]c3nccc(Oc4ccc(Oc5ccccc5)cc4)c23)c1` [compound 31, (2Z)-2-fluoro-N-methyl-3-(3-{[4-(4-phenoxyphenoxy)-1H-pyrazolo[3,4-b]pyridin-3-yl]amino}phenyl)prop-2-enamide], the IC50 at Lck, on Btk and against EGFR was 100 to 1000 nM in each case.

As for `CN(C)C/C=C/C(=O)N1CCCC(c2n[nH]c3nccc(Oc4ccc(Oc5ccccc5)cc4)c23)C1` (stereo not drawn) [compound 32, (2E)-4-(dimethylamino)-1-{3-[4-(4-phenoxyphenoxy)-1H-pyrazolo[3,4-b]pyridin-3-yl]piperidin-1-yl}but-2-en-1-one], the IC50 was less than 100 nM on Lck, less than 100 nM at Btk and 100 to 1000 nM on EGFR.

For `CN(C/C=C/C(=O)N1CC[C@@H](Nc2n[nH]c3nccc(Oc4ccc(C(=O)Nc5cc(C(F)(F)F)ccn5)cc4)c23)C1)C1CC1` [compound 33, 4-[(3-{[(3R)-1-[(2E)-4-[cyclopropyl(methyl)amino]but-2-enoyl]pyrrolidin-3-yl]amino}-1H-pyrazolo[3,4-b]pyridin-4-yl)oxy]-N-[4-(trifluoromethyl)pyridin-2-yl]benzamide], the IC50 at Lck is 100 to 1000 nM; on Btk, less than 100 nM; on EGFR, 1000 to 10000 nM.

For the compound `CN(C)C/C=C/C(=O)N1CC[C@@H](Nc2n[nH]c3nccc(Oc4ccc(Oc5ccccc5)cc4C#N)c23)C1` [compound 34, 2-[(3-{[(3R)-1-[(2E)-4-(dimethylamino)but-2-enoyl]pyrrolidin-3-yl]amino}-1H-pyrazolo[3,4-b]pyridin-4-yl)oxy]-5-phenoxybenzonitrile], the IC50 at Lck is 100 to 1000 nM; at Btk, less than 100 nM; against EGFR, 1000 to 10000 nM.

On to `CN(C/C=C/C(=O)N1CC[C@@H](Nc2n[nH]c3nccc(Oc4ccc(Oc5ccccc5)cc4C#N)c23)C1)C1CC1` [compound 35, 2-[(3-{[(3R)-1-[(2E)-4-[cyclopropyl(methyl)amino]but-2-enoyl]pyrrolidin-3-yl]amino}-1H-pyrazolo[3,4-b]pyridin-4-yl)oxy]-5-phenoxybenzonitrile], for which the results for the IC50 at Lck, on Btk and at EGFR were 1000 to 10000 nM, 100 to 1000 nM and greater than 10000 nM, respectively.

As for `CN(C/C=C/C(=O)N1CCC[C@H]1CNc1n[nH]c2nccc(Oc3ccc(Oc4ccccc4)cc3)c12)C1CC1` [compound 36], the IC50 was less than 100 nM on Lck, less than 100 nM at Btk and 1000 to 10000 nM against EGFR.
